According to US20070191493A1, “Use of n-alkanols as activators of the cftr channel” (priority 2003, published 2007):

Key:
CFTR channel = CFTR channel (Homo sapiens, UniProt P13569); test: 125I radioactive iodide efflux in CHO-CFTR(+) cells; type: cell-based; design: expressed in transfected cells; host or cells: CHO (Chinese hamster ovary) cells, CHO-CFTR(+); settings: CHO-CFTR(+) cells; n-alkanols 1 mM, FSK 1 μM, A23187 2 μM, α-GA 10 and 100 μM
Description: The cells are cultured in 24-well plates with a dilution to 1/10 after passage. […] The operation is repeated every 30 s for 2 to 6 min. […] All the samples are counted in a gamma counter (Kontron). The precipitated proteins are solubilized in 0.1N NaOH and quantified using a calorimetric test.
The tracer contained in the cell layer at the beginning of the efflux is calculated as the sum of the samples and of the extracts counted. The efflux curves are constructed by expressing the percentage of the content remaining in the cell layer (I %) with respect to time. The stimulated or nonstimulated efflux rate constants (k, min^−1) are determined by smoothing the efflux curves to a monoexponential function I %=100*exp(−kt) using a linear regression of the neperian logarithm of the data, k is used to calculate the iodide released into the medium with respect to time. The hypothesis is made that, in the presence of a stimulator, the efflux is the sum of two iodide effluxes occurring in parallel: a basal efflux and a stimulated efflux characterized, respectively, by the constants kb and ks. The total net efflux is then described by the equation It^%=100*(1−exp(−ktt)) where kt is the sum of kb and ks. Finally, ks calculated as kt−kb is used to establish a dose-response relationship for antagonists. The data is expressed as means ±SD, and the t-test is used to determine the significances. The concentration-response curves for agonists or for antagonists are smooth using the hyperbolic equation Y=Ymax*X/(EC5C+X), where Y is the response. Y begins at the basal level and progresses to the plateau (Ymax), X is the concentration and the half-effect values (EC are calculated using GraphPad Prism v3.0 (GraphPad software)).

CHO cells = test: ATP-induced calcium response (cellular uncoupling) in CHO cells; type: cell-based, Chinese hamster; settings: α-GA 10 to 100 μM, octan-1-ol 1 mM
Description: The Ca^2+ measurements are carried out in the presence of fura-2 (impermeant fluorescent probe) which binds […]. The cells are incubated in serum-free DMEM/F12 culture medium in the presence of the permeant form of fura-2 (fura-2/AM, 2.5 μM) for 1 h at 37° C. The cells, placed on the platform of an epifluorescent microscope (Olympus) (20× objective), are perfused with the solutions to be tested (e.g. ATP, octanol). They are sequentially illuminated at 340 nm and 380 nm and the fluorescence emitted (F) is measured at 510 nm. It is detected via a 12-bit CCD camera (Sony) connected to a data processing computer unit (TILL Photonics). The intracellular Ca^2+ concentration [Ca^2+]i is calculated using the Grynckiewicz equation (Grynckiewicz et al., 1985): [Ca^2+]i=Kdi *(R−Rmin/Rmax−R), based on the ratiometric analysis R (340/380 nm) of the fluorescence (TILL Vision); Rmax and Rmin denote the ratio of fluorescence measured in the presence or in the absence of Ca^2+.

CFTR channel, sequence (P13569 whole entry): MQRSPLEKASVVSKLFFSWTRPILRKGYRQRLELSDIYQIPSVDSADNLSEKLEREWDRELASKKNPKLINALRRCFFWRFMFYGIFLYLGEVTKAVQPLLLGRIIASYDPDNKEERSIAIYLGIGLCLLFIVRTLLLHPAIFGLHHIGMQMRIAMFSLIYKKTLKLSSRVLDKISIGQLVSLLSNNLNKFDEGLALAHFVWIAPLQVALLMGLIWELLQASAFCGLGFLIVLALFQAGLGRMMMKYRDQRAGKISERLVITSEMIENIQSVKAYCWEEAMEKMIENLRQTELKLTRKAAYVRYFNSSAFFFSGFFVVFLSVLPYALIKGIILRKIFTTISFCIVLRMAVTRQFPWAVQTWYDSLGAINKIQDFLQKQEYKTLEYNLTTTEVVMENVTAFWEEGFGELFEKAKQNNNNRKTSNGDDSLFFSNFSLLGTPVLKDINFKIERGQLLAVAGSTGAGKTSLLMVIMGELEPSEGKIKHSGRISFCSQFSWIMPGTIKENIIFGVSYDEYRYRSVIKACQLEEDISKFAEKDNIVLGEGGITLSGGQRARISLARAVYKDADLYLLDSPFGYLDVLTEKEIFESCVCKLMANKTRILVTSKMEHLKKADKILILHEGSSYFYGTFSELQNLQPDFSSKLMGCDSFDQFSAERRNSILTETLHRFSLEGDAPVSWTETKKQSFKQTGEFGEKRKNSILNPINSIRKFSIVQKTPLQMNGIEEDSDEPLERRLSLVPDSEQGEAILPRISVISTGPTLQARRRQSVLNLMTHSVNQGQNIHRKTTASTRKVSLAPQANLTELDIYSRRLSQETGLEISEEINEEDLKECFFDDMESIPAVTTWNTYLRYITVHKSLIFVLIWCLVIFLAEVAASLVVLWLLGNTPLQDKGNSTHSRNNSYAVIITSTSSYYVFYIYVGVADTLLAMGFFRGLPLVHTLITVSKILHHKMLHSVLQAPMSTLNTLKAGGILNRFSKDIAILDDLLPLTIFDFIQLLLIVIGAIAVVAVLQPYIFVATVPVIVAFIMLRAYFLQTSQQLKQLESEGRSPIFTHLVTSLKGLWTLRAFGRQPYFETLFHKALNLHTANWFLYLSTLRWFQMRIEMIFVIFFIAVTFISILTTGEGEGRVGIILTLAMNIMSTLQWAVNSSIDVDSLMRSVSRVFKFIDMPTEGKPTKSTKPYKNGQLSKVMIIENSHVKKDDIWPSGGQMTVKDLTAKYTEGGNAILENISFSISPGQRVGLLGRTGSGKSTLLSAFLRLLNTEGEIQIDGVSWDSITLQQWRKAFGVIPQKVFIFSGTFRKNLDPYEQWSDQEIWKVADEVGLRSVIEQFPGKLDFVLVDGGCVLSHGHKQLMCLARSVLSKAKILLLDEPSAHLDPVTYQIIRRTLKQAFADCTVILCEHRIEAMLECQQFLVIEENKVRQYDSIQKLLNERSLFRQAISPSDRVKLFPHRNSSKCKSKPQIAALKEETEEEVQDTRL

CC1(C)[C@@H](O)CC[C@]2(C)[C@H]3C(=O)C=C4[C@H]5C[C@@](C)(C(=O)O)CC[C@]5(C)CC[C@@]4(C)[C@]3(C)CC[C@@H]12 [α-GA, 18-alpha glycerrhetinic acid, reference compound]
activation of CFTR (125I efflux), in words (CFTR channel): no effect | cellular uncoupling shown by ATP-induced calcium response (CHO cells): clearly uncouples the cells
